Assay results reported in the supplement of paper PMC10307832.

Experiments:
Assay in all cases: relative viability (nuclei count vs DMSO), 5 days (fraction); higher = more cells survive
H3255 = test system: H3255
Method in brief: (§1)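 Medians of duplicate plates are given as relative viability. That measure is the nuclei count in treated wells divided by the count in vehicle wells. Counts were taken on 4× images of lung cancer cell lines in 1536-well plates, 5 days after pin-tool dosing the day after seeding with one drug alone or a fixed anchor-drug dose plus five library-drug doses (not always all listed) in √10 steps.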

PC-14 = test system: PC-14
Method in brief: as §1

NCI-H520 = test system: NCI-H520
Method in brief: as §1

COR-L23 = test system: COR-L23
Method in brief: as §1

CAL-12T = test system: CAL-12T
Method in brief: as §1

HCC-15 = test system: HCC-15
Method in brief: as §1

NCI-H2228 = test system: NCI-H2228
Method in brief: as §1

LK-2 = test system: LK-2
Method in brief: as §1

EKVX = test system: EKVX
Method in brief: as §1

PC-3 [JPC-3] = test system: PC-3 [JPC-3]
Method in brief: as §1

NCI-H1355 = test system: NCI-H1355
Method in brief: as §1

NCI-H1734 = test system: NCI-H1734
Method in brief: as §1

NCI-H1437 = test system: NCI-H1437
Method in brief: as §1

NCI-H1650 = test system: NCI-H1650
Method in brief: as §1

NCI-H2405 = test system: NCI-H2405
Method in brief: as §1

NCI-H2342 = test system: NCI-H2342
Method in brief: as §1

NCI-H661 = test system: NCI-H661
Method in brief: as §1

NCI-H322M = test system: NCI-H322M
Method in brief: as §1

HCC-827 = test system: HCC-827
Method in brief: as §1

SW 1573 = test system: SW 1573
Method in brief: as §1

ABC-1 = test system: ABC-1
Method in brief: as §1

RERF-LC-KJ = test system: RERF-LC-KJ
Method in brief: as §1

Molecule `O=C(O)c1ccc(-c2c[nH]c3ncc(-c4ccccc4)cc23)cc1C1CCCC1` + O=C(CCCCCCC(=O)Nc1ccccc1)NO [Vorinostat] (partner 1 µM) has a relative viability (H3255; first compound 0.04 µM) of 0.872, a relative viability (H3255; first compound 0.1265 µM) of 0.795 and a relative viability (H3255; first compound 0.4 µM) of 0.83. For the same molecule, the relative viability (H3255; first compound 1.265 µM) was 0.791, the relative viability (PC-14; first compound 0.04 µM) was 0.733 and the relative viability (PC-14; first compound 0.1265 µM) was 0.781. For the same molecule, the relative viability (PC-14; first compound 0.4 µM) was 0.786, the relative viability (PC-14; first compound 1.265 µM) was 0.723 and the relative viability (NCI-H520; first compound 0.04 µM) was 0.643. The relative viability (NCI-H520; first compound 0.1265 µM) was 0.816, the relative viability (NCI-H520; first compound 0.4 µM) was 0.71 and the relative viability (NCI-H520; first compound 1.265 µM) was 0.484. For the same molecule, the relative viability (COR-L23; first compound 0.04 µM) was 0.468, the relative viability (COR-L23; first compound 0.1265 µM) was 0.403 and the relative viability (COR-L23; first compound 0.4 µM) was 0.467. For the same molecule, the relative viability (COR-L23; first compound 1.265 µM) was 0.233, the relative viability (CAL-12T; first compound 0.04 µM) was 0.721 and the relative viability (CAL-12T; first compound 0.1265 µM) was 0.91. The relative viability (CAL-12T; first compound 0.4 µM) was 0.73, the relative viability (CAL-12T; first compound 1.265 µM) was 0.668 and the relative viability (HCC-15; first compound 0.04 µM) was 0.848. For the same molecule, the relative viability (HCC-15; first compound 0.1265 µM) was 0.872, the relative viability (HCC-15; first compound 0.4 µM) was 0.834 and the relative viability (HCC-15; first compound 1.265 µM) was 0.59. It also gave a relative viability (NCI-H2228; first compound 0.04 µM) of 0.831, a relative viability (NCI-H2228; first compound 0.1265 µM) of 0.652 and a relative viability (NCI-H2228; first compound 0.4 µM) of 0.745. The relative viability (NCI-H2228; first compound 1.265 µM) was 0.291, the relative viability (LK-2; first compound 0.04 µM) was 0.333 and the relative viability (LK-2; first compound 0.1265 µM) was 0.311. For the same molecule, the relative viability (LK-2; first compound 0.4 µM) was 0.385, the relative viability (LK-2; first compound 1.265 µM) was 0.199 and the relative viability (EKVX; first compound 0.04 µM) was 0.846. The relative viability (EKVX; first compound 0.1265 µM) was 0.758, the relative viability (EKVX; first compound 0.4 µM) was 0.713 and the relative viability (EKVX; first compound 1.265 µM) was 0.712. For the same molecule, the relative viability (PC-3 [JPC-3]; first compound 0.04 µM) was 0.803, the relative viability (PC-3 [JPC-3]; first compound 0.1265 µM) was 0.836 and the relative viability (PC-3 [JPC-3]; first compound 0.4 µM) was 0.787. It also gave a relative viability (PC-3 [JPC-3]; first compound 1.265 µM) of 0.667, a relative viability (NCI-H1355; first compound 0.04 µM) of 0.647 and a relative viability (NCI-H1355; first compound 0.1265 µM) of 0.753. It also gave a relative viability (NCI-H1355; first compound 0.4 µM) of 0.694, a relative viability (NCI-H1355; first compound 1.265 µM) of 0.615 and a relative viability (NCI-H1734; first compound 0.04 µM) of 0.866. The relative viability (NCI-H1734; first compound 0.1265 µM) was 0.858, the relative viability (NCI-H1734; first compound 0.4 µM) was 0.876 and the relative viability (NCI-H1734; first compound 1.265 µM) was 0.648. For the same molecule, the relative viability (NCI-H1437; first compound 0.04 µM) was 0.842, the relative viability (NCI-H1437; first compound 0.1265 µM) was 0.814 and the relative viability (NCI-H1437; first compound 0.4 µM) was 0.531. For the same molecule, the relative viability (NCI-H1437; first compound 1.265 µM) was 0.326, the relative viability (NCI-H1650; first compound 0.04 µM) was 0.418 and the relative viability (NCI-H1650; first compound 0.1265 µM) was 0.513. It also gave a relative viability (NCI-H1650; first compound 0.4 µM) of 0.538, a relative viability (NCI-H1650; first compound 1.265 µM) of 0.476 and a relative viability (NCI-H2405; first compound 0.04 µM) of 1.02. It also gave a relative viability (NCI-H2405; first compound 0.1265 µM) of 1.12, a relative viability (NCI-H2405; first compound 0.4 µM) of 0.944 and a relative viability (NCI-H2405; first compound 1.265 µM) of 0.668. For the same molecule, the relative viability (NCI-H2342; first compound 0.04 µM) was 0.783, the relative viability (NCI-H2342; first compound 0.1265 µM) was 0.762 and the relative viability (NCI-H2342; first compound 0.4 µM) was 0.818. It also gave a relative viability (NCI-H2342; first compound 1.265 µM) of 0.874, a relative viability (NCI-H661; first compound 0.04 µM) of 0.766 and a relative viability (NCI-H661; first compound 0.1265 µM) of 0.763. It also gave a relative viability (NCI-H661; first compound 0.4 µM) of 0.787, a relative viability (NCI-H661; first compound 1.265 µM) of 0.787 and a relative viability (NCI-H322M; first compound 0.04 µM) of 0.909. It also gave a relative viability (NCI-H322M; first compound 0.1265 µM) of 0.858, a relative viability (NCI-H322M; first compound 0.4 µM) of 0.898 and a relative viability (NCI-H322M; first compound 1.265 µM) of 0.855. For the same molecule, the relative viability (HCC-827; first compound 0.04 µM) was 0.372, the relative viability (HCC-827; first compound 0.1265 µM) was 0.913 and the relative viability (HCC-827; first compound 0.4 µM) was 0.815. The relative viability (HCC-827; first compound 1.265 µM) was 0.75, the relative viability (SW 1573; first compound 0.04 µM) was 0.949 and the relative viability (SW 1573; first compound 0.1265 µM) was 0.878. For the same molecule, the relative viability (SW 1573; first compound 0.4 µM) was 0.699, the relative viability (SW 1573; first compound 1.265 µM) was 0.656 and the relative viability (ABC-1; first compound 0.04 µM) was 1.12. The relative viability (ABC-1; first compound 0.1265 µM) was 1.36, the relative viability (ABC-1; first compound 0.4 µM) was 1.31 and the relative viability (ABC-1; first compound 1.265 µM) was 0.985. It also gave a relative viability (RERF-LC-KJ; first compound 0.04 µM) of 0.714, a relative viability (RERF-LC-KJ; first compound 0.1265 µM) of 0.74 and a relative viability (RERF-LC-KJ; first compound 0.4 µM) of 0.724. The relative viability (RERF-LC-KJ; first compound 1.265 µM) was 0.574.
